Test results from PubChem BioAssay AID2060494 (Molecular Pharmacology Branch, DTP, NCI, 2025).
“And” between values parts separate entries of the source, which are not always exact repeats. Equal values may be shown once.

System: 435261-313-R-J1-PDC complex spheroid viability
Assay: Anticancer human tumor 435261-313-R-J1-PDC patient-derived colon adenocarcinoma cell line growth inhibition [GQUAD]
Settings: for viability, T/C: stronger effect = lower value; for IC50: curve of compound
Description: DNA G-quadruplex Stabilizer Agents in Combinations in Complex Spheroids
A high-throughput screen of multi-cell type tumor spheroids was designed to identify active combinations of DNA G-quadruplex stabilizer agents and targeted small molecules. Complex spheroids include a stromal component modeled by human endothelial cells (HUVEC) and fibroblasts modeled by human mesenchymal stem cells (MSCs). The concentration ranges selected for each drug and investigational agent were based upon clinically achievable concentrations if the clinical Cmax of the agent was known.
Compounds. The drugs and investigational agents: pidnarulex (CX-5461; NSC782164), APTO-253 (NSC789042), BRACO-19 (NSC847499), peposertib (NSC802822), ceralasertib (NSC780249), elimusertib (NSC800525), camonsertib (NSC841442), AZD-1390 (NSC803789), olaparib (NSC753686), talazoparib (NSC767125), ART-558 (NSC835418), sotorasib (NSC818433), MRTX-1133 (NSC836407), SN-38 (NSC673596), topotecan (NSC609699), etoposide (NSC141540), doxorubicin (NSC123127), gemcitabine (NSC613327), 5-fluorouracil (NSC19893), paclitaxel (NSC125973), vemurafenib (NSC761431), panobinostat (NSC761190), R-306465 (JNJ-16241199; NSC773264), adavosertib (NSC754352), TP-3654 (NSC805149), carboplatin (NSC241240), KSQ-4279 (NSC840948), and staurosporine (NSC755774) were obtained from the National Cancer Institute (NCI) Developmental Therapeutics Program Chemical Repository (34). The FDA-approved anticancer drug set is available from the NCI Developmental Therapeutics Program. […] The stock solutions were prepared in dimethyl sulfoxide (DMSO, Sigma-Aldrich, St. Louis, MO, cat. D2650) at 800-fold the tested concentration and stored at -70 degrees C prior to their use. All drugs and investigational agents were tested over a range starting from a high concentration at or near the clinical Cmax and decreasing in half-log increments. If the clinical Cmax for an agent had not been determined, the highest concentration tested was 10 microM.
2.3 Cell Culture. All cells were maintained in an incubator at 37 degrees C and 5% CO2 with 95% humidity. The PDC lines were cultured according to standard operating procedures established by the NCI PDMR. All PDCs were thawed and cultured in Matrigel-coated flasks prepared with a working solution of 1X Ham's F-12 nutrient mix, without supplementation (Invitrogen, cat. 11765054), 100 U/mL penicillin-streptomycin (Invitrogen, cat. 15140122), and 2.5% Matrigel (Corning Inc., cat. 354248) for the first three passages. The 857933-349-R-J2-PDC line was cultured in 6C/Colon 1B media, which includes advanced DMEM/F-12 (Thermo Fisher Scientific, cat. 12634028), 10 mM HEPES (Thermo Fisher Scientific, cat. 15630080), 1X GlutaMAX supplement (Thermo Fisher Scientific, cat. 35050061), 0.1 mg/mL primocin (InvivoGen, cat. ant-pm-2), 10% defined fetal bovine serum, heat inactivated (HyClone Laboratories Inc., cat. SH30070.03HI), 50% L-WRN conditioned media (ATCC, cat. CRL-3276), 1.25 mM N-Acetyl-L-cysteine (Sigma-Aldrich, cat. A9165), 10 mM nicotinamide (Sigma-Aldrich, cat. N0636), 1X B-27 supplement (Thermo Fisher Scientific, cat. 17504044), 1X N-2 supplement (Thermo Fisher Scientific, cat. 17502048), 10 microM Y-27632 dihydrochloride (Tocris Bioscience, cat. 1254), and 50 ng/mL human EGF recombinant protein (Thermo Fisher Scientific, cat. PHG0311). The 485176-168-R4-J1-PDC line was cultured in Panc media, which includes all 6C/Colon 1B media components plus 100 ng/mL human FGF-10 (Thermo Fisher Scientific, cat. 100-26), 500 nM SB-431542 (Selleckchem, cat. S1067), and gastrin (Tocris, cat. 3006).
[…]
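Note: spheroids exposed to the agents for seven days before readout.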
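Throughout, for viability, T/C: percent of vehicle control viability with DMSO wells as 100%.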

SMILES: C#Cc1c(F)ccc2cc(O)cc(-c3ncc4c(N5CC6CCC(C5)N6)nc(OCC56CCCN5CC(F)C6)nc4c3F)c12 (centres undefined)
- viability, T/C (compound 0.0316 µM): 108% and 99.7% and 99.5%
- viability, T/C (compound 0.1 µM): 99.8% and 93.3% and 92.1%
- viability, T/C (compound 0.316 µM): 92.1% and 98.2% and 99.7%
- viability, T/C (compound 1 µM): 80.9% and 54.3% and 80.5%
- viability, T/C (compound 3.16 µM): 51.5% and 76.6% and 64.6%
- viability, T/C (compound 10 µM): 57.3% and 53.5% and 39.1%
- IC50: > 10 µM and 6.01 µM

SMILES: C=CC(=O)N1CCN(c2nc(=O)n(-c3c(C)ccnc3C(C)C)c3nc(-c4c(O)cccc4F)c(F)cc23)C(C)C1 (centres undefined)
- viability, T/C (compound 0.0316 µM): 113% and 111% and 86%
- viability, T/C (compound 0.1 µM): 96% and 101% and 88.2%
- viability, T/C (compound 0.316 µM): 127% and 125% and 132%
- viability, T/C (compound 1 µM): 106% (2×) and 75.7%
- viability, T/C (compound 3.16 µM): 134% and 124% and 116%
- viability, T/C (compound 10 µM): 110% and 131% and 101%
- IC50: > 10 µM

SMILES: C=CCn1c(=O)c2cnc(Nc3ccc(N4CCN(C)CC4)cc3)nc2n1-c1cccc(C(C)(C)O)n1
- viability, T/C (compound 0.0316 µM): 86.6% and 93%
- viability, T/C (compound 0.1 µM): 114% and 97.5%
- viability, T/C (compound 0.316 µM): 94.4% and 87.1%
- viability, T/C (compound 1 µM): 74.3% and 105%
- viability, T/C (compound 3.16 µM): 70.5% and 77.6%
- viability, T/C (compound 10 µM): 57.6% and 47%
- IC50: > 10 µM and 8.92 µM

SMILES: CC(=O)O[C@H]1C(=O)[C@@]2(C)[C@H]([C@H](OC(=O)c3ccccc3)[C@]3(O)C[C@H](OC(=O)[C@H](O)[C@@H](NC(=O)c4ccccc4)c4ccccc4)C(C)=C1C3(C)C)[C@]1(OC(C)=O)CO[C@@H]1C[C@@H]2O
- viability, T/C (compound 0.0316 µM): 92.9% and 82.9% and 90.8%
- viability, T/C (compound 0.1 µM): 76.1% and 66.3% and 52.6%
- viability, T/C (compound 0.316 µM): 68.9% and 81.9% and 51.9%
- viability, T/C (compound 1 µM): 68.7% and 43.9% and 69.8%
- viability, T/C (compound 3.16 µM): 68.5% and 44.5% and 67.8%
- viability, T/C (compound 10 µM): 65.1% and 53.1% and 63.9%

SMILES: CC(C)(O)C1CCC(Nc2ccc3ncc(-c4cccc(C(F)(F)F)c4)n3n2)CC1 (centres undefined)
- viability, T/C (compound 0.0316 µM): 60.2%
- viability, T/C (compound 0.1 µM): 82%
- viability, T/C (compound 0.316 µM): 82.5%
- viability, T/C (compound 1 µM): 36.3%
- viability, T/C (compound 3.16 µM): 9.61%
- viability, T/C (compound 10 µM): 12.9%
- IC50: 0.665 µM

SMILES: CC(C)n1c(=O)n(C)c2cnc3cc(F)c(-c4ccc(OCCCN5CCCCC5)nc4)cc3c21
- viability, T/C (compound 0.0316 µM): 94.4% and 102%
- viability, T/C (compound 0.1 µM): 88% and 71.4%
- viability, T/C (compound 0.316 µM): 109% and 113%
- viability, T/C (compound 1 µM): 81.4% and 57.3%
- viability, T/C (compound 3.16 µM): 65.6% and 84.4%
- viability, T/C (compound 10 µM): 37.7% and 38.4%
- IC50: 5.9 µM and 7.09 µM

SMILES: CC1COCCN1c1cc(-c2ccnn2C)c2ccnc(-c3ccn[nH]3)c2n1 (centres undefined)
- viability, T/C (compound 0.0316 µM): 67.8% and 99.2%
- viability, T/C (compound 0.1 µM): 53.6% and 47.4%
- viability, T/C (compound 0.316 µM): 52.6% and 55.7%
- viability, T/C (compound 1 µM): 38.4% and 36.9%
- viability, T/C (compound 3.16 µM): 37.2% and 32.5%
- viability, T/C (compound 10 µM): 20.3% and 19.5%
- IC50: 0.321 µM and 0.203 µM

SMILES: CC1COCCN1c1cc(C2(O)CC3CCC(C2)O3)c2cnn(-c3ccn[nH]3)c2n1 (centres undefined)
- viability, T/C (compound 0.0316 µM): 85.4% and 89.4%
- viability, T/C (compound 0.1 µM): 58.9% and 54.2%
- viability, T/C (compound 0.316 µM): 49.8% and 43.1%
- viability, T/C (compound 1 µM): 29.2% and 27%
- viability, T/C (compound 3.16 µM): 26.7% and 20.5%
- viability, T/C (compound 10 µM): 9.56% and 9.97%
- IC50: 0.259 µM and 0.174 µM

SMILES: CC1COCCN1c1cc(C2(S(C)(=N)=O)CC2)nc(-c2ccnc3[nH]ccc23)n1 (centres undefined)
- viability, T/C (compound 0.0316 µM): 98.5% and 112% and 88.4%
- viability, T/C (compound 0.1 µM): 87.1% and 109% and 69.1%
- viability, T/C (compound 0.316 µM): 88.4% and 79.8% and 94%
- viability, T/C (compound 1 µM): 83.2% and 81.4% (2×)
- viability, T/C (compound 3.16 µM): 65.6% and 80.9% and 47.6%
- viability, T/C (compound 10 µM): 51.2% and 79.8% and 42%
- IC50: > 10 µM and 2.92 µM

SMILES: CCCS(=O)(=O)Nc1ccc(F)c(C(=O)c2c[nH]c3ncc(-c4ccc(Cl)cc4)cc23)c1F
- viability, T/C (compound 0.0316 µM): 105% and 95%
- viability, T/C (compound 0.1 µM): 69.6% and 103%
- viability, T/C (compound 0.316 µM): 118% and 139%
- viability, T/C (compound 1 µM): 82.9% and 104%
- viability, T/C (compound 3.16 µM): 63.1% and 88.8%
- viability, T/C (compound 10 µM): 14.7% and 13.4%
- IC50: 4.25 µM and 5.71 µM

SMILES: CC[C@@]1(O)C(=O)OCc2c1cc1n(c2=O)Cc2cc3c(CN(C)C)c(O)ccc3nc2-1
- viability, T/C (compound 0.000999 µM): 126% and 101% and 118%
- viability, T/C (compound 0.00316 µM): 61.6% and 94.8% and 94.1%
- viability, T/C (compound 0.00999 µM): 96.5% and 98.2% and 110%
- viability, T/C (compound 0.0316 µM): 85.8% and 74.4% and 89.1%
- viability, T/C (compound 0.0999 µM): 75.2% and 72.1% and 83.8%
- viability, T/C (compound 0.316 µM): 59% and 68.4% and 67.3%
- IC50: > 0.316 µM

SMILES: CCc1c2c(nc3ccc(O)cc13)-c1cc3c(c(=O)n1C2)COC(=O)[C@]3(O)CC
- viability, T/C (compound 0.000999 µM): 92.5% and 68.7% and 82%
- viability, T/C (compound 0.00316 µM): 48.6% and 84.6% and 53.4%
- viability, T/C (compound 0.00999 µM): 66.8% and 82.9% and 63.2%
- viability, T/C (compound 0.0316 µM): 48.6% and 83.2% and 48.7%
- viability, T/C (compound 0.0999 µM): 44% and 53.8% and 41.1%
- viability, T/C (compound 0.316 µM): 30.8% and 54.3% and 25.1%

SMILES: CN(C)c1ccc(Nc2c3ccc(NC(=O)CCN4CCCC4)cc3nc3cc(NC(=O)CCN4CCCC4)ccc23)cc1
- viability, T/C (compound 3.16 µM): 63.9% [middle of 11 runs]
- viability, T/C (compound 10 µM): 41.3% [middle of 11 runs]
